Experimental data: patent EP0557876A1, “Use of xanthine derivatives for the treatment of muscle damage subsequent to complete interruption of blood circulation” (HOECHST AKTIENGESELLSCHAFT, priority 1992, dated 1993)
Marks after values point to notes of the source that are not given here.

Tested on: Muskelfasern
Assay: Muscle fibre diameter after 3 h tourniquet interruption of blood circulation in a hind limb and subsequent reperfusion
Type: in vivo, Cercopithecus pygerythrus
Design: durchschnittliche Durchmesser Muskelfaser Typ1 / durchschnittliche Durchmesser Muskelfaser Typ2a: unit not given here
Experimental: Zwei Gruppen von acht erwachsenen, männlichen südafrikanischen Meerkatzen (Cercopithecus pygerythrus) werden untersucht. Die Anasthäsie der Tiere erfolgt intramuskulär mit 15 mg/kg Ketamin (Warner Lambert) und wird intravenös mit Thiopenton Natrium (25 mg/kg, May und Baker) aufrecht erhalten. Eine hintere Extremität wird durch eine pneumatische Abschnürbinde und eine Esmarch Bandage blutleer gemacht. Die Unterbrechung der Blutzirklation wird drei Stunden aufrechterhalten, dann wird die Unterbrechung beendet und die Tiere können aus der Betäubung aufwachen. Die Entnahme der Muskelgewebeproben erfolgt unter Betäubung (15 mg/kg Ketamin).
20 mg/kg Verbindung 1 wird intravenös über 30 Minuten den Tieren appliziert bevor die Unterbrechung der Blutzirkulation erfolgt.
Das entnommene Muskelgewebe wird sofort in Isopentan bei -183° C eingefroren. Die Präparation des Muskelgewebes erfolgt wie bei Dubowitz (Dubowitz et al. Muscle Biopsy A practical Approach, London, Bailliere Tindall, 1985, S. 82 - 128) beschrieben. Mikroskopische Schnitte werden mit Muskelfaser-ATPase für 30 Minuten bei pH 9,4 gefärbt, eingebettet und im Lichtmikroskop untersucht. Die Durchmesser von wenigstens 200 Muskelfasern werden mit einem computerisierten Video-Image-Analysator ausgewertet.
Der durchschnittliche Durchmesser jedes Muskelfasertyps wird in Tabelle 1 beschrieben.

[1] = Unterbrechung der Blutzirkulation, lower part of Tabelle 1 (12/18/24 h series), 20 mg/kg i.v.
[2] = Unterbrechung der Blutzirkulation, upper part of Tabelle 1 (3/6 h series), 20 mg/kg i.v.
[3] = Vor Unterbrechung der Blutzirkulation, lower part of Tabelle 1 (12/18/24 h series), 20 mg/kg i.v. over 30 min before interruption
[4] = Vor Unterbrechung der Blutzirkulation, upper part of Tabelle 1 (3/6 h series), 20 mg/kg i.v. over 30 min before interruption

Compound: CCOCn1cnc2c1c(=O)n(CCCCC(C)(C)O)c(=O)n2C [Verbindung 1, 7-Ethoxymethyl-1-(5-hydroxy-5-methylhexyl)-3-methylxanthin]
- durchschnittliche Durchmesser Muskelfaser Typ1 (Nach 3 Stunden, 20 mg/kg i.v.): 39,89*
- durchschnittliche Durchmesser Muskelfaser Typ2a (Nach 3 Stunden, 20 mg/kg i.v.): 48,55*
- durchschnittliche Durchmesser Muskelfaser Typ1 (Nach 6 Stunden, 20 mg/kg i.v.): 43,42*
- durchschnittliche Durchmesser Muskelfaser Typ2a (Nach 6 Stunden, 20 mg/kg i.v.): 53,37*
- durchschnittliche Durchmesser Muskelfaser Typ1 (Nach 12 Stunden, 20 mg/kg i.v.): 35,79
- durchschnittliche Durchmesser Muskelfaser Typ2a (Nach 12 Stunden, 20 mg/kg i.v.): 42,28*
- durchschnittliche Durchmesser Muskelfaser Typ1 (Nach 18 Stunden, 20 mg/kg i.v.): 34,68
- durchschnittliche Durchmesser Muskelfaser Typ2a (Nach 18 Stunden, 20 mg/kg i.v.): 41,31
- durchschnittliche Durchmesser Muskelfaser Typ1 (Nach 24 Stunden, 20 mg/kg i.v.): 33,00
- durchschnittliche Durchmesser Muskelfaser Typ2a (Nach 24 Stunden, 20 mg/kg i.v.): 40,24
- durchschnittliche Durchmesser Muskelfaser Typ1 [1]: 33,21
- durchschnittliche Durchmesser Muskelfaser Typ2a [1]: 38,69
- durchschnittliche Durchmesser Muskelfaser Typ1 [2]: 36,28
- durchschnittliche Durchmesser Muskelfaser Typ2a [2]: 44,75
- durchschnittliche Durchmesser Muskelfaser Typ1 [3]: 36,50
- durchschnittliche Durchmesser Muskelfaser Typ2a [3]: 45,09
- durchschnittliche Durchmesser Muskelfaser Typ1 [4]: 36,50
- durchschnittliche Durchmesser Muskelfaser Typ2a [4]: 45,09
- Schwellung der Muskelfasern vom Typ 1 und 2a (nach 18 - 24 Stunden Wiederdurchblutung, 20 mg/kg i.v.): signifikant verringerte Schwellung
